Data on 7 molecules can be found in publication PMC6773865, “Functional recruitment of dynamin requires multimeric interactions for efficient endocytosis” (Nature Communications, 2019).

Where no end group is shown, it is not given here.

Assay [1] deals with β2 adrenergic receptor internalization in BSC-1 cells. The experiment in a line: β adrenergic receptor internalization assay, β2AR. The following applies: 30 µM, 20 min pre-treatment, isoproterenol-induced. Type of assay: cell-based.
For assay [2], the system named is β1 adrenergic receptor internalization in BSC-1 cells. Kind of assay: β adrenergic receptor internalization assay, β1AR. The class given is cell-based. Particulars: 30 µM, 20 min pre-treatment, isoproterenol-induced.
Assay [3] relates to uptake of cholera toxin B. Type of assay: cell-based.
Another assay has as its system uptake of shiga toxin B. Type of assay: cell-based.
The subject of assay [4] is clathrin mediated endocytosis (TfR-SEP) in NIH 3T3 cells. Kind of assay: ppH assay combined with patch-clamp dialysis. Type of assay: cell-based. The following applies: for event frequency ratio f = FWC/FCA: average ± SEM, SEM. The procedure: To do so, we monitored cellular endocytic activity using the ppH assay with new developments for fully automated analysis on a large number of cells (See “Methods” and Supplementary Fig. 4). We combined this assay, which monitors in real time the endocytic activity of cells, with the patch-clamp technique in order to dialyse the relevant peptide at a known concentration inside the cellular cytoplasm to inhibit endocytosis acutely. Each recording consisted of 5 min in cell-attached mode (CA) with no dialysis followed by 10 min in whole cell mode (WC) during which the inhibitors were dialysed (Fig. 5a, b). Each recording therefore had its own internal control condition, i.e., the cell-attached mode, from which we obtained the frequency ratio f = FWC/FCA, where F is the event frequency recorded during the indicated mode. Of note, the electrical parameters of patch clamp recordings were similar in all conditions (Supplementary Fig. 5). To assess the innocuousness of this assay, we monitored the endocytic activity of unperturbed cells vs. cells dialysed with a control solution (see methods for composition). Patching the cells minimally affected their endocytic activity over a 10 min period (event frequency f = 67.3 ± 4.3%, n = 60, vs. 90.7 ± 14.9% in no patching recordings, n = 8, p = 0.58).
NIH 3T3 cells (ECACC 93061524) were cultured in DMEM supplemented with 1% sodium pyruvate, 1% glutamax and 10% fetal calf serum (Invitrogen). Cells were incubated at 37 °C in 5% CO2 until use and subcultured every 2 to 4 days for maintenance up to passage 20. Cells were transfected with 1.5 μg of TfR-SEP plasmid 24 h prior to imaging and patch clamp. Care was taken to find the right balance between sufficient fluorescent signal to allow for proper imaging and reasonable overexpression to diminish potential saturation artefacts. Best results were obtained using Fugene 6 (Promega) as the transfection reagent but Lipofectamine 2000 (Invitrogen) has also been used in this study due to a temporary arrest of Fugene 6 production by the provider. All transfections were performed according to the manufacturers’ recommendations. Four to eight hours after transfection, cells were seeded at a density of ~70,000 cells ml^−1 on 18 mm glass coverslips coated with poly-L-lysine (3 min application of 0.1 mM polylysine (Sigma P2636) in borate buffer, pH 8.0 followed by a quick rinse in PBS) and used the next day.
Fast solution exchange was controlled by electro-valves (Lee company) connected to a theta glass pipette (TG150, Harvard Apparatus) pulled to ∼100-μm tip size using a vertical puller (Narishige, World Precision Instruments) placed above the recorded cell. Cells were alternatively perfused with HEPES or MES buffered saline solutions (HBS/MBS) containing (in mM): 135 NaCl, 5 KCl, 0.4 MgCl2, 1.8 CaCl2, 1 D-glucose and 20 HEPES or MES. The pH was adjusted to 7.4 or 5.5 using NaOH and osmolarity to 310–315 mOsm L^−1 with NaCl.
(§1) Cells were patched with pipettes made of borosilicate glass (GC150F, Harvard Apparatus) and pulled with a vertical Narishige puller (World Precision Instruments). The solution contained (in mM): 130–140 KCH3SO3, 1 EGTA, 0.1 CaCl2, 10–20 HEPES, 4 ATP (sodium or magnesium salt), 0.4 Na-GTP (or GTPγS when indicated), 5 phosphocreatine and 3 sodium ascorbate. pH was adjusted to 7.2 using KOH and osmolarity to ~300 mOsm L^−1. Sodium ascorbate was omitted in earlier recordings but was added for better stability. Chloride ions either came from 2 mM KCl, 10 mM NaCl or 4 mM MgCl2 (when Na-ATP was used) in various trials. All salts were purchased from Sigma-Aldrich. Cells were voltage-clamped at −60 mV with an EPC10 amplifier (HEKA) with series resistance and cell capacitance estimation every 4 s in the whole cell mode. The digital triggers of the amplifier were used to drive the electrovalves for pH changes. […]
In general terms: Patch clamp records ionic current or voltage across a cell membrane.

Assay [5] concerns membrane capacitance of NIH 3T3 cells (balance between exocytosis and endocytosis). The experiment in a line: Cell capacitance in whole cell patch-clamp. The following applies: 10th minute over 1st minute of whole cell recording; peptides 1 mM; paired t-test. The class given is cell-based. The procedure:
as §1, with “changes. Cell viability and dialysis efficiency were made sure of by monitoring […] throughout the recording using the Patchmaster software (HEKA): series resistance should remain below 10 MΩ and holding current should remain above −100 pA. If either of these criteria was not respected (except holding current for recordings in GTPγS, see Supplementary Fig. 3D), the recording was not considered for analysis. On a given experimental day at least one control recording (i.e. without any peptide) was performed to ensure recording quality. All these recordings were pooled in the ‘control’ condition (n = 63 on 42 experimental days).” for “changes.”
Supplementary Figure 5: Characteristics of the whole cell recordings in the different conditions of this study. A, Scheme of the equivalent electrical circuit of a cell recorded in the whole cell configuration. […]
This is likely due to the activation of GTP dependent trimeric G proteins which activate various channels in the presence of GTPγS, thereby increasing the holding current. […] F, Ratios of Cm recorded during the 10 th minute of recording over Cm recorded during the 1st minute. […]

For assay [6], the target named is GST-amphSH3 (SH3 domain of murine amphiphysin1 fused to glutathione S-transferase) (not stated | murine) (UniProt Q7TQF7). The experiment in a line: SEC; analytical size exclusion chromatography, Superdex200 Increase 10/300 GL, PBS + 0.01% Tween-20, 0.75 mL/min. (In gel filtration, larger molecules generally elute earlier.)
The target in assay [7] is dD15-N (divalent peptide: two D15 motifs linked through their N termini by PEG linkers). Kind of assay: SPR; biotinylated peptides immobilised (50-90 RU) on biotin CAPture chips, GST-amphSH3 or Ntr-bSUMO-amphSH3 as analyte; 25 °C; 10 mM sodium phosphate pH 7.4, 150 mM NaCl, 0.01% Tween-20; single cycle kinetics, 1:1 Langmuir fit, estimated KDs.
Assay [8] shares this target. The experiment in a line: SPR; biotinylated peptides immobilised (50-90 RU) on biotin CAPture chips, SUMO-amphSH3 as analyte; 25 °C; 10 mM sodium phosphate pH 7.4, 150 mM NaCl, 0.01% Tween-20; steady-state (equilibrium) analysis. A general note: SPR reads the build-up and loss of mass on a sensor chip optically.
Assay [9] has as its target D44 peptide (derived from the dynamin1 PRD, bears motifs A and B). The assay is described as above.
Assay [10] concerns the target dD15-N (divalent peptide: two D15 motifs linked through their N termini by PEG linkers). Described as above. This is another data set of the same source.
Assay [11] concerns the target T1, SUMO-amphSH3 (SH3 domain of murine amphiphysin1 fused to the small ubiquitin-like modifier) (murine, UniProt Q7TQF7 607-686).
T1 construct: amphiphysin 1, mouse, SH3 domain, residues 607-686, subcloned from pAmph1-mCherry into a modified pET-SUMO vector with a TEV site after the SUMO tag; A TEV cleavage site and multiple cloning site lie between SUMO and the SH3 domain; Monomer by SEC; also called SUMO-SH3; monomeric amphSH3; source: E. coli BL21-CodonPlus (DE3)-RIPL, auto-induction at 16 °C, purified (Ni-NTA, SEC); not shown: SUMO, …
T1 sequence (looked up): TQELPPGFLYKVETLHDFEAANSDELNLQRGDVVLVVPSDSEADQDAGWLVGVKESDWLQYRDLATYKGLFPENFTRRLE
The description is as above. The following applies: both partners purified.

Usually stoichiometry N stands for a count of units in the complex or per binding partner. Broadly, the Kd is the concentration at which binding is half-saturated.

On to `O=C(N/N=C/c1cc(O)c(O)cc1O)c1cc2ccccc2cc1O` [Dyngo4a], for which the “effect on β2AR internalization” value in [1] is recorded as “fully block”. In addition, the “effect on β1AR internalization” value in [2] is given as “fully block”. In assay [3], the “inhibition of cholera toxin B uptake” value is recorded as “only partially sensitive to inhibition”. Also, in the assay on uptake of shiga toxin B, the “inhibition of shiga toxin B uptake” value is given as “only partially sensitive to inhibition”.

`Nc1nc2c(ncn2[C@@H]2O[C@H](COP(=O)(O)OP(=O)(O)OP(O)(O)=S)[C@@H](O)[C@H]2O)c(=O)[nH]1` [GTPγS, reference compound]: the “event frequency ratio f = FWC/FCA” value in [4] (GTP replaced by GTPγS in the pipette solution, n = 4) was 11.2 ± 4.1%. Also, the “change of Cm, Cm(10')/Cm(1')” value in assay [5] is reported as “no significant decrease in Cm”.

“Ac-YALGGAPPVPSRPGASPDPFGPPPQVPSRPNRAPPGVPRITISDP-NH2 (N-terminus and C-terminus assumed) [D44]”: the “event frequency ratio f = FWC/FCA” value was 41.4 ± 9.6% in assay [4] (100 µM peptide in patch pipette, event frequency 8–10 min whole cell over 3–5 min cell attached, same cell, n = 13 (D15)) and 20.6 ± 5.2% in assay [4] (1 mM peptide in patch pipette, event frequency 8–10 min whole cell over 3–5 min cell attached, same cell, n = 22 (D15), 15 (D44), 6 (dD15-C)). Also, in [4] (peptide dialysed through patch pipette, 3T3 cells, ppH assay), the “inhibition of endocytosis on dialysis” value is “fully inhibited CCV formation”. Moreover, in [5], the “change of Cm, Cm(10')/Cm(1')” value is recorded as “no significant decrease in Cm”.

Take “GST-amphSH3 (SH3 domain of murine amphiphysin1 fused to glutathione S-transferase) (from UniProt Q7TQF7 607-686) (domain or fragment)”: the stoichiometry N in assay [6] was determined as 2. The Kd in assay [7] is 0.509 µM.

For “Ntr-bSUMO-amphSH3 complex (biotinylated SUMO-amphSH3 bound to tetrameric neutravidin) (from UniProt Q7TQF7 607-686)”, the Kd in [7] was 0.0045 µM.

B1: SUMO-amphSH3 (SH3 domain of murine amphiphysin1 fused to the small ubiquitin-like modifier) (domain or fragment)
chain: T1 sequence (looked up)
For the molecule B1, the Kd amounted to 65 µM in [8], 37 µM in assay [9] and 66 µM in assay [10].

B2: D15 peptide (monovalent, from the dynamin1 PRD, holds motif B) (peptide)
chain: PPPQVPSRPNRAPPG-NH2
modifications: also: N-terminal biotin via TTDS spacer (biotinylated form) or N-terminal acetyl (form used in cells)
On to B2, for which the affinity in assay [11], expressed as Kd, was 102 ± 2 µM.
